Columns and labels:
Format in all cases: cell-based, human
[1] = tested on: HepG2 cells; experiment: Cholesterol levels in microsomal fractions by HPLC after cholesterol oxidase; details: 0-25 μM
[2] = tested on: HMG CoA reductase mRNA; experiment: HMG CoA reductase mRNA by real-time RT-PCR in HepG2 cells; details: for inhibition of HMG CoA reductase mRNA: HepG2, lipid-depleted serum media
Protocol: HepG2 cells were grown in MEM containing non-essential amino acids, 0.03M NaHCO3, 10% FBS, 1 mM L-glutamine, 1 mM sodium pyruvate and 1% Pen/Strep and incubated at 37° C. in 5% CO2. When cells reached at ˜90% confluency, the oxysterols in DMSO or in ethanol (final concentration, 0.1%) and/or [1-^14C]acetate for cholesterol synthesis was added or otherwise as indicated. Microsomal and cytosol fractions were isolated from broken cells as described previously (10).
Total RNA was isolated from HepG2 cells using SV Total RNA Isolation Kit (Promega). Two μg of total RNA was used for first-strand cDNA synthesis as recommended by manufacture (Invitrogen). Real-time PCR was performed using SYBR Green on ABI 7500 Fast Real-Time PCR System (Applied Biosystems). The final reaction mixture contained 5 ng of cDNA, 100 nM of each primer, 10 μl of 2×SYBR® Green PCR Master Mix (Applied Biosystems), and RNase-free water to complete the reaction mixture volume to 20 μl. All reactions were performed in triplicate. The PCR was carried out for 40 cycles at 95° C. for 15 s and 60° C. for 1 min. The fluorescence was read during the reaction, allowing a continuous monitoring of the amount of PCR product. The data was normalized to internal control-β-actin or GAPDH mRNA. The sequences of primers for HMG CoA reductase used in real-time PCR are […] (SEQ ID NO: 1) (Forward) and […] (SEQ ID NO: 2) (Reverse).

[3] = tested on: SREBP-1; experiment: Western blot of SREBP-1 activation in HepG2 cells; details: for mature forms of SREBP-1: HepG2, dose dependent
Protocol: FIGS. 18A-18D. Western blot analysis of SREBPs activation following 25HC3S or 25HC treatment in HepG2 cells. […] SREBP-1 and SREBP-2 protein levels in the cells were determined by Western blot analysis. The extracted protein (100 μg) was loaded onto each lane for each condition as indicated. The data represent a typical result from one of three independent experiments. The trends of the protein levels are highly reproducible.
Microsomal proteins (80 μg) were separated on a 7.5% SDS-polyacrylamide denaturing gel according to the method of Laemmli (14). Following SDS-PAGE (Hoefer Vertical Slab Gel Unit; Heofer, San Francisco, Calif.), proteins were electrophoretically transferred overnight (4° C.) to Immobilon-P membranes using a Hoefer Trans Blot Electrophoretic Transfer cell. The membranes were then blocked for 90 minutes (25° C.) in blocking buffer (PBS, pH 7.4, 0.1% Tween, 5% non-fat dry milk). Proteins were then incubated for 90 minutes (25° C.) or overnight (4° C.) with a rabbit polyclonal IgG (1:2500-1:20,000) against human SREBP-1, SREBP-2, or HMG CoA reductase. After washing, a secondary antibody (goat anti-rabbit IgG-Horse-radish peroxidase conjugate, 1:2500) was added to the blocking solution (25° C., 90 minutes). Protein bands were detected using the Amersham ECL plus Kit.

[4] = tested on: PPARγ mRNA; experiment: PPARγ mRNA by real time RT-PCR in macrophages
Protocol: (§1) Total RNA was isolated from THP-1 derived macrophages following treatments for 6 hrs otherwise as indicated using SV Total RNA Isolation Kit (Promega, Wisconsin, Wis.), which includes DNase treatment. Two microgram of total RNA was used for first-strand cDNA synthesis as recommended by manufacturer (Invitrogen, Carlsbad, Calif.). Real-time RT-PCR was performed using SYBR Green as indicator on ABI 7500 Fast Real-Time PCR System (Applied Biosystems, Foster City, Calif.). The final reaction mixture contained 10 ng of cDNA, 100 nM of each primer, 10 μl of 2×SYBR® Green PCR Master Mix (Applied Biosystems, Foster City, Calif.), and RNase-free water to complete the reaction mixture volume to 20 μl. All reactions were performed in triplicate. PCR was carried out for 40 cycles of 95° C. for 15 s and 60° C. for 1 min. The fluorescence was read during the reaction, allowing a continuous monitoring of the amount of PCR product. The data was normalized to internal control GAPDH.

[5] = tested on: TNFα and IL-1β mRNA; experiment: LPS-induced TNFα, IL-1β and NFκB mRNA by real-time RT-PCR in THP-1 macrophages; details: for LPS-induced IL-1β mRNA levels / LPS-induced TNFα mRNA levels: 25 hours; for LPS-induced IL-1β mRNA levels: FIG. 28A; for LPS-induced TNFα mRNA levels: FIG. 28B
Protocol: FIGS. 28A and B. Addition of 25HC3S suppresses LPS-induced IL-1β (A) and TNFα (B) expression in macrophages. To study the effect of 25HC3S on LPS-induced TNFα and IL-1β expression and release, macrophages were treated with 1 μg/ml of LPS and different concentrations of 25HC3S and 25HC as indicated for 25 hours; mRNA levels of TNFα and IL-1β were determined by real time RT-PCR. The results represent mean SD. […] Both 25HC3S and 25HC repressed LPS-induced TNFα mRNA levels as shown in B.
as §1
pSilencer2.1-U6 neo siRNA expression vector and negative control for RNAi were purchased from Ambion, Inc. (Austin, Tex.). Three human PPARγ oligonucleotide sequences, […] (siRNA1, SEQ ID NO: 13), […] (siRNA2, SEQ ID NO: 14), and […] (siRNA3, SEQ ID NO: 15), were selected as specific siRNAs to target human PPARγ. Synthetic sense and antisense oligonucleotides were annealed by incubated at 90° C. for 3 min and then at 37° C. for 1 hr. The double stranded oligonucleotides were cloned into the BamH I-Hind III sites of the pSilencer2.1-U6 neo vector according manufacturer's protocol. The control RNA interference (RNAi) sequence was a randomly scrambled and was not found in the mouse, human, or rat genome databases. All of the constructs were confirmed by sequencing. THP-1 macrophages were transfected with a PPARγ siRNA or control RNAi using FugeneHD reagent according to the manufacturer's instructions (Roche Applied Science, Indianapolis, Ind.). After incubation for 4 hrs, the medium was changed with normal medium and compounds were added at appropriate concentrations as indicated. Cells were harvested after 48 hrs following the addition, and PPARγ protein levels were determined using western blot and mRNA levels of inflammatory response factors were measured by real time RT-PCR analysis.

[6] = tested on: IκB; experiment: IκB mRNA (RT-PCR) and protein (Western blot) in THP-1 macrophages; details: for IκB protein levels: Western blot, 24 hrs; for increase of IκB mRNA levels: macrophages; for IκB mRNA level: real time RT-PCR, 6 hrs
Protocol: FIG. 25A-C. […] The Western blot data represents one of three experiments.
Fifty μg of total cell lysates or nuclear protein extracts, otherwise as indicated, were separated on 10% SDS-PAGE gels and transferred onto a polyvinylidene difluoride membrane as described previously [31]. Membranes were blocked in TBS containing 5% of nonfat dried milk for 1 hr. The specific proteins were determined by incubation with specific antibodies against human PPAR or IκB overnight at 4° C. with shaking. After washing, the membrane was incubated in a 1:3,000 dilution of a secondary antibody (goat anti-rabbit or anti-mouse IgG-HP conjugate; Bio-Rad, Hercules, Calif.) at room temperature for 1 hr in the washing buffer (Tris buffered solution containing 0.5% Tween 20). The protein bands were visualized using Western Lightening Chemiluminescence Reagent (Perkin-Elmer, Waltham, Mass.). The expression levels were normalized to Lamin.

[7] = HepG2, in the presence of serum

Structure (SMILES): C[C@H](CCCC(C)(C)O)[C@H]1CC[C@H]2[C@@H]3CC=C4C[C@@H](OS(=O)(=O)O)CC[C@]4(C)[C@H]3CC[C@]12C [25HC3S, 5-cholesten-3β, 25-diol 3-sulphate]
- cholesterol levels in the microsomal fraction [1]: significantly decreased
- cholesterol levels in the microsomal fraction ([1]; listed as nuclear oxysterol): significant decrease
- HMG CoA reductase mRNA ([2]; HepG2, 10% FBS media): concentration dependent decreases
- inhibition of the mRNA of HMG CoA reductase and SREBP1 ([2]; HepG2, at 12 μM): 85%
- inhibition of HMG CoA reductase [2, 7]: 70%
- inhibition of HMG CoA reductase mRNA [2]: still strongly inhibits
- mature forms of SREBP-1 [3]: decreases
- inhibition of SREBP-1 activation ([3]; HepG2, media containing 50 μM of mevinolin and 0.5 μM of mevalonate): more potent inhibition on SREBP-1 activation than 25HC
- PPARγ mRNA levels [4]: neither 25HC nor 25HC3S was able to change
- LPS-induced IL-1β mRNA levels ([5]; 1 μg/ml LPS): significantly suppressed
- LPS-induced TNFα mRNA levels ([5]; 1 μg/ml LPS): repressed
- LPS-induced TNFα, IL-1β and NFκB expression ([5]; 12 μM, 48 hrs, control macrophages): significantly suppressed
- suppression of IL-1 and TNFα expression in the presence of T0070907 ([5]; PPARγ antagonist T0070907): significantly be blunted
- LPS-induced TNFα, IL-1β and NFκB expression in siRNA-expressed cells ([5]; PPARγ knock down macrophages): failed in suppressing
- suppression of LPS-induced IL-1β mRNA levels ([5]; macrophages, 1 μg/ml LPS): 2 fold
- IκB protein levels [6]: increased
- increase of IκB mRNA levels ([6]; 12 μM): 2.5 folds
- increase of IκB mRNA levels ([6]; in the presence of TNFα): 6 folds
- IκB mRNA level [6]: significantly increased

Structure (SMILES): C[C@H](CCCC(C)(C)O)[C@H]1CC[C@H]2[C@@H]3CC=C4C[C@@H](O)CC[C@]4(C)[C@H]3CC[C@]12C [25HC, 25-hydroxycholesterol, reference compound]
- cholesterol levels in the microsomal fraction [1]: significantly decreased
- inhibition of the mRNA of HMG CoA reductase and SREBP1 ([2]; HepG2, at 3 μM): 85%
- inhibition of HMG CoA reductase [2, 7]: 70%
- inhibition of HMG CoA reductase mRNA [2]: more potent inhibition than 25HC3S
- inhibition of HMG CoA reductase ([2]; HepG2, lipids depleted serum): 90%
- mature forms of SREBP-1 [3]: decreases
- PPARγ mRNA levels [4]: neither 25HC nor 25HC3S was able to change
- LPS-induced IL-1β mRNA levels ([5]; 1 μg/ml LPS): significantly increased
- LPS-induced TNFα mRNA levels ([5]; 1 μg/ml LPS): repressed
- increase of LPS-induced IL-1β mRNA levels ([5]; macrophages, 1 μg/ml LPS): 2 fold
- IκB protein levels [6]: decreased
- IκB mRNA level [6]: no significantly changed

Source: US11384115B2, “Nuclear sulfated oxysterol, potent regulator of lipid homeostasis, for therapy of hypercholesterolemia, hypertriglycerides, fatty liver diseases, and atherosclerosis” (Virginia Commonwealth University, priority 2004, dated 2022)
